# “And” between values parts separate entries of the source, which are not always exact repeats. Identical values can stand only once. Like-named read-outs stand apart in the source and are kept apart here.
# Legend:
# [1] = tested on: V-mos transformed NIH-3T3 cells; assay: Colony growth of V-mos transformed NIH-3T3 cells; type: cell-based; conditions: one week; clones counted
# Protocol: (§1) 5×10^2 cells were plated per 60 mm dish and incubated with different concentrations (0.005-5 μg/ml) of the complex in PBS. A week later, the cells were stained with Gimsa and clones were counted. Similar experiments were conducted using V-mos transformed NIH-3T3 cells, and also using Ph2TeCl2 and Ph3TeCl, with both types of transformed cells.
# [2] = tested on: Ha-Ras transformed NIH-3T3 cells; assay: Colony growth of Ha-Ras transformed NIH-3T3 cells; type: cell-based; conditions: 0.005-5 μg/ml in PBS; one week; clones counted
# Protocol: as §1
# [3] = Solubility in phosphate buffer solution (PBS) at pH7; type: physicochemical
# human mononuclear cells [4] = assay: Proliferation of human mononuclear cells (Example 14); type: cell-based; conditions: for proliferation of human mononuclear cells (3H methyl-thymidine): 72 hours + 24 hours label
# Protocol: Human mononuclear cells were obtained by layering heparinized blood over a Ficoll/Hypaque gradient. The mononuclear cells were resuspended in enriched RPMI, rinsed three times and brought to a concentrations of 5×10^5cells/ml enriched RPMI. Varying concentrations of the complexes of Ex. 1 and Ex. 7(a), ranging from 0.005 μg to 5 μg/cell mixture were added to the cells. Aliquots of 0.2 ml of each sample were placed in wells of microplates (triplicates).
# [5] = tested on: IL-2 receptors of human mononuclear cells; assay: Induction of IL-2 receptors of human mononuclear cells (proliferation with recombinant IL-2, 3H thymidine uptake); type: cell-based
# Protocol: Human MNC were brought to a concentration of 10^6 cells/ml. RPMI+10% FCS. Aliquots of 0.2 ml. were placed in duplicate wells of microdishes and plates were incubated at 37° C. for 24 hrs. […] Plates were further incubated for 48 hrs and labeled with ^3H thymidine 24 hrs before harvesting. The proliferation was measured by ^3HT uptake as described by Gillis et al, J. Immunol. […] The results are expressed in counts per minute.
# human mononuclear cells [6] = conditions: range of 1 to 10 ng/ml of cells; 72 hours incubation
# Protocol: Aliquots of 0.2 ml from each sample were placed in wells of microplates (NUNC) (triplicates). […] Cells were further incubated overnight and harvested with a cell harvester.
# Cells were further incubated overnight and harvested with a cell harvester.
# IL-2 = tested on: IL-2
# Protocol: The complexes were administered in these dilutions, as drinking water, to male Balb-C mice, 6-8 weeks of age over a 4 day period. The exact amount of liquid intake was recorded daily. […] The cells were incubated at a concentration of 10^7 cells/ml in enriched RPMI containing 2 μg/ml of con-A for 24 hours at 37° C. The supernatants were collected and tested for IL-2 content.
# IL-2 receptors = assay: IL-2 receptor sites on human mononuclear cells, fluoresceinated antibody; type: cell-based
# Protocol: This example provides an assay to detect the presence of receptor sites for IL-2. […] The cells were washed twice with PBS and then incubated with a specific fluoresceinated antibody against IL-2 receptors as described in Uchiyama et al, J. Immunol.
# human mononuclear cells [7] = assay: Proliferation of human mononuclear cells (Example 14); type: cell-based; conditions: 72 hours + 24 hours label
# [8] = 10 μg/ml H2O as drinking water over 4 days
compound,measurement,setting,value
"Cl[Te](Cl)(c1ccccc1)c1ccccc1 [Ph2TeCl2, reference compound]",inhibition of growth,[1],"none of the complex, Ph2TeCl2 or Ph3TeCl inhibited the growth"
same,number of colonies / growth compared with control,[2],did not inhibit their growth
"Cl[Te](Cl)(Cl)Cl [TeCl4, tellurium tetrachloride]",solubility,[3],2.3 ± 0.1; mg Te/100 ml PBS
equimolar complex of TeO2 and ethylene glycol [Example 7(a)],proliferation of human mononuclear cells (3H methyl-thymidine),"human mononuclear cells [4]; 1 × 10^−4 μg/ml, listed as Ex. 7(a)",4321 and 2332
same,proliferation of human mononuclear cells (3H methyl-thymidine),"human mononuclear cells [4]; 5 × 10^−2 μg/ml, listed as Ex. 7(a)",5953 and 5532
same,"proliferation, 3HT uptake","[5]; Test B, 1 μg/ml",9315 counts per minute
same,"proliferation, 3HT uptake","[5]; Test B, 1 × 10^−2 μg/ml",6418 counts per minute
same,"proliferation, 3HT uptake","[5]; Test B, 1 × 10^−3 μg/ml",5167 counts per minute
same,"proliferation, 3HT uptake","[5]; Test B, 1 × 10^−4 μg/ml",5372 counts per minute
same,"proliferation, 3HT uptake","[5]; Test B, 1 × 10^−5 μg/ml",6397 counts per minute
same,"proliferation, 3HT uptake","[5]; Test B, 5 × 10^−1 μg/ml",8688 counts per minute
same,"proliferation, 3HT uptake","[5]; Test B, 5 × 10^−2 μg/ml",5538 counts per minute
same,"proliferation, 3HT uptake","[5]; Test B, 7 × 10^−1 μg/ml",5250 counts per minute
same,increase of proliferation of human mononuclear cells,human mononuclear cells [6],10 fold
same,"IL-2 content, cpm",IL-2; 1 μg/ml H2O as drinking water over 4 days,32843 cpm
same,"IL-2 content, cpm",IL-2; [8],42500 cpm
same,Percent increase as compared to control,IL-2; [8],+30%
same,"IL-2 content, cpm",IL-2; 25 μg/ml H2O as drinking water over 4 days,36815 cpm
same,inducing lymphokine production when given orally,IL-2; orally in an aqueous diluent,active
"Phytohemagglutinin M [Phytohemagglutinin M (Difco), reference compound]","proliferation, 3HT uptake","[5]; Test A, positive control, concentration not given","Phytohemagglutinin M (Difco) 195,432 counts per minute"
same,"proliferation, 3HT uptake","[5]; Test B, positive control, concentration not given","Phytohemagglutinin M (Difco) 125,272 counts per minute"
same,cells positive for IL-2 receptors,"IL-2 receptors; in the presence of PHA, concentration not given",80%
C1CO[Te]2(O1)OCCO2 [preparation 3],solubility,[3],16 ± 0.4; mg Te/100 ml PBS
"Cl[Te](c1ccccc1)(c1ccccc1)c1ccccc1 [Ph3TeCl, reference compound]",inhibition of growth,[1],"none of the complex, Ph2TeCl2 or Ph3TeCl inhibited the growth"
same,number of colonies / growth compared with control,[2],did not inhibit their growth
"equimolar complex of TeO2 and ethane-1,2-diol [7(b)]","proliferation, 3HT uptake","[5]; Test B, 1 μg/ml",2620 counts per minute
same,"proliferation, 3HT uptake","[5]; Test B, 1 × 10^−2 μg/ml",3928 counts per minute
same,"proliferation, 3HT uptake","[5]; Test B, 1 × 10^−3 μg/ml",3007 counts per minute
same,"proliferation, 3HT uptake","[5]; Test B, 1 × 10^−4 μg/ml",2327 counts per minute
same,"proliferation, 3HT uptake","[5]; Test B, 1 × 10^−5 μg/ml",2242 counts per minute
same,"proliferation, 3HT uptake","[5]; Test B, 5 × 10^−1 μg/ml",2402 counts per minute
same,"proliferation, 3HT uptake","[5]; Test B, 5 × 10^−2 μg/ml",3290 counts per minute
same,"proliferation, 3HT uptake","[5]; Test B, 7 × 10^−1 μg/ml",2000 counts per minute
"O=[Te]=O [TeO2, Tellurium dioxide, reference compound]",proliferation of human mononuclear cells (3H methyl-thymidine),human mononuclear cells [4]; 1 μg/ml,2842
same,proliferation of human mononuclear cells (3H methyl-thymidine),human mononuclear cells [4]; 5 μg/ml,3028
same,proliferation of human mononuclear cells (3H methyl-thymidine),human mononuclear cells [4]; 1 × 10^−1 μg/ml,4825
same,proliferation of human mononuclear cells (3H methyl-thymidine),human mononuclear cells [4]; 1 × 10^−2 μg/ml,4730
same,proliferation of human mononuclear cells (3H methyl-thymidine),human mononuclear cells [4]; 5 × 10^−1 μg/ml,4773
same,proliferation of human mononuclear cells (3H methyl-thymidine),human mononuclear cells [4]; 5 × 10^−2 μg/ml,5802
same,effect on proliferation of human mononuclear cells,human mononuclear cells [4]; any concentration that was tested,*The concentrations that induced proliferation range from 5 × 10^−1 to 1 × 10^−1 μg. No significant effect was found for TeO2 at any concentration that was tested.
same,"proliferation, 3HT uptake","[5]; Test A, 1 μg/ml",1563 counts per minute
same,"proliferation, 3HT uptake","[5]; Test A, 1 × 10^−2 μg/ml",3108 counts per minute
same,"proliferation, 3HT uptake","[5]; Test A, 1 × 10^−3 μg/ml",2867 counts per minute
same,"proliferation, 3HT uptake","[5]; Test A, 1 × 10^−4 μg/ml",5540 counts per minute
same,"proliferation, 3HT uptake","[5]; Test A, 1 × 10^−5 μg/ml",3442 counts per minute
same,"proliferation, 3HT uptake","[5]; Test A, 5 × 10^−1 μg/ml",4667 counts per minute
same,"proliferation, 3HT uptake","[5]; Test A, 5 × 10^−2 μg/ml",2515 counts per minute
same,"proliferation, 3HT uptake","[5]; Test A, 7 × 10^−1 μg/ml",2475 counts per minute
same,"proliferation, 3HT uptake","[5]; Test B, 1 μg/ml",3275 counts per minute
same,"proliferation, 3HT uptake","[5]; Test B, 1 × 10^−2 μg/ml",3077 counts per minute
same,"proliferation, 3HT uptake","[5]; Test B, 1 × 10^−3 μg/ml",3800 counts per minute
same,"proliferation, 3HT uptake","[5]; Test B, 1 × 10^−4 μg/ml",2925 counts per minute
same,"proliferation, 3HT uptake","[5]; Test B, 1 × 10^−5 μg/ml",3645 counts per minute
same,"proliferation, 3HT uptake","[5]; Test B, 5 × 10^−1 μg/ml",5405 counts per minute
same,"proliferation, 3HT uptake","[5]; Test B, 5 × 10^−2 μg/ml",4280 counts per minute
same,"proliferation, 3HT uptake","[5]; Test B, 7 × 10^−1 μg/ml",4302 counts per minute
same,proliferation of human mononuclear cells (3H methyl-thymidine),human mononuclear cells [7]; 1 × 10^−3 μg/ml,6168
same,proliferation of human mononuclear cells (3H methyl-thymidine),human mononuclear cells [7]; 1 × 10^−4 μg/ml,5331
same,cells positive for IL-2 receptors,"IL-2 receptors; 1 μg/ml, 24 hours incubation",5%
